system: HL-60 cells; assay: MTT cytotoxicity assay; assay type: cell-based, human; conditions: HL-60, 24 h, MTT; read-out: IC50 ± SD
Method: (§1) The cytotoxicities for studied compounds were evaluated against leukemia cells (HL-60), as well as ovarian (SKOV-3), prostate (PC-3), and breast (MCF-7) cancer cell lines. The potential selectivity of these compounds towards cancer cells was assessed by determination of their cytotoxicities towards breast non-cancerous cells (MCF-10A). For comparison, cisplatin was added to the cytotoxicity assays.
(§2) Bacterial strains and cell lines were obtained from the American Type Culture Collection (ATCC).[59] […] Antimicrobial activity was tested in Müeller Hinton (MH) II broth (Becton Dickinson). For anticancer activity assay, the following reagents from Merk were used: 3-(4,5-dimethylthiazol-2-yl)-2,5-diphenyltetrazolium bromide (MTT), sodium dodecyl sulfate (SDS) and HCl. The solubilized formazan product was spectrophotometrically quantified in a Power Wave XS (Bio Tek, Winooski, VT, USA) microplate reader. The HL-60 and PC-3 cells were grown in RPMI-1640 medium with stable glutamine (Biowest) supplemented with 10% (v/v) of heat-inactivated fetal bovine serum (FBS, Biowest) and 1% (v/v) of antibiotic–antimycotic solution (Biowest). The SKOV-3 cells were grown in McCoy's 5A medium with L-glutamine (Biowest) supplemented with 10% (v/v) heat-inactivated FBS, and 1% (v/v) antibiotic–antimycotic solution. The MCF-7 cells were grown in Eagle's MEM (Minimal Essential Medium) medium with stable glutamine (Biowest), supplemented with 10% (v/v) heat-inactivated FBS 1% (v/v) MEM non-essential amino acids (Biowest), 1% (v/v) antibiotic–antimycotic solution, and 1 mM sodium pyruvate (Merck). The MCF-10A cells were grown in Ham's F-12K (Kaighn's) Medium with stable glutamine (Gibco) supplemented with 5% (v/v) heat-inactivated FBS, 1% (v/v) MEM non-essential amino acids, 1% (v/v) antibiotic–antimycotic solution, 5 μg mL^−1 insulin, 0.04 μg mL^−1 hydrocortisone (Merck), and 15 ng mL^−1 human Epidermal Growth Factor (hEGF, PeproTech).
(§3) The cells were cultured in 96-well plates and incubated with the tested compound for 24 h and 48 h. All experiments were performed in exponentially growing cultures. The 0.03 M solutions of the compounds in DMSO were appropriately diluted using culture media. The maximal final concentration of DMSO in each well was 0.1%. The cytotoxicity of the compounds was measured by determining cell viability with a colorimetric test based on 3-(4,5-dimethylthiazol-2-yl)-2,5-diphenyltetrazolium bromide (MTT). MTT stock solution was added to each well to a final concentration of 0.5 mg mL^−1 and incubated for 4 h at 37 °C; following formazan crystals were dissolved by the addition of sodium dodecyl sulfate (SDS) solution (10% SDS in 0.001 M HCl). MTT and SDS were added directly to the cell culture. The compound's IC50 values (concentration required to reduce the viability of cells by 50% compared with the control cells) were calculated from the data obtained with the MTT assay.

Question: Which IC50 does the source give for Clc1ccc([O][Re])c2ncccc12.[C-]#[O+].[C-]#[O+].[C-]#[O+].c1ccc(-c2ccn[nH]2)cc1 [complex 12, [Re(CO)3(ClQ)HPhpz]] here?
Answer: Its IC50 is 2 ± 1 µM.

same assay, conditions: HL-60, 48 h, MTT; read-out: IC50 ± SD

Question: Clc1ccc([O][Re])c2ncccc12.[C-]#[O+].[C-]#[O+].[C-]#[O+].c1ccc(-c2ccn[nH]2)cc1 [complex 12, [Re(CO)3(ClQ)HPhpz]] was tested. Which IC50 did it give?
Answer: Its IC50 is 1.5 ± 0.4 µM.

system: SKOV-3 cells; assay: MTT cytotoxicity assay; assay type: cell-based, human; conditions: SKOV-3, 24 h, MTT; read-out: IC50 ± SD
Method: as §1, §2, §3

Question: Clc1ccc([O][Re])c2ncccc12.[C-]#[O+].[C-]#[O+].[C-]#[O+].c1ccc(-c2ccn[nH]2)cc1 [complex 12, [Re(CO)3(ClQ)HPhpz]] was tested. Which IC50 did it give?
Answer: The IC50 was greater than 100 µM.

same assay, conditions: SKOV-3, 48 h, MTT; read-out: IC50 ± SD

Question: Which IC50 does the source give for Clc1ccc([O][Re])c2ncccc12.[C-]#[O+].[C-]#[O+].[C-]#[O+].c1ccc(-c2ccn[nH]2)cc1 [complex 12, [Re(CO)3(ClQ)HPhpz]] here?
Answer: The IC50 was 78 ± 12 µM.

system: PC-3 cells; assay: MTT cytotoxicity assay; assay type: cell-based, human; conditions: PC-3, 24 h, MTT; read-out: IC50 ± SD
Method: as §1, §2, §3

Question: How did the IC50 turn out when Clc1ccc([O][Re])c2ncccc12.[C-]#[O+].[C-]#[O+].[C-]#[O+].c1ccc(-c2ccn[nH]2)cc1 [complex 12, [Re(CO)3(ClQ)HPhpz]] was run?
Answer: The IC50 was 41 ± 8 µM.

same assay, conditions: PC-3, 48 h, MTT; read-out: IC50 ± SD

Question: For Clc1ccc([O][Re])c2ncccc12.[C-]#[O+].[C-]#[O+].[C-]#[O+].c1ccc(-c2ccn[nH]2)cc1 [complex 12, [Re(CO)3(ClQ)HPhpz]], which IC50 is on record?
Answer: Its IC50 is 23 ± 4 µM.

system: MCF-7 cells; assay: MTT cytotoxicity assay; assay type: cell-based, human; conditions: MCF-7, 24 h, MTT; read-out: IC50 ± SD
Method: as §1, §2, §3

Question: Which IC50 does the source give for Clc1ccc([O][Re])c2ncccc12.[C-]#[O+].[C-]#[O+].[C-]#[O+].c1ccc(-c2ccn[nH]2)cc1 [complex 12, [Re(CO)3(ClQ)HPhpz]] here?
Answer: Its IC50 is 29 ± 3 µM.

same assay, conditions: MCF-7, 48 h, MTT; read-out: IC50 ± SD

Question: For Clc1ccc([O][Re])c2ncccc12.[C-]#[O+].[C-]#[O+].[C-]#[O+].c1ccc(-c2ccn[nH]2)cc1 [complex 12, [Re(CO)3(ClQ)HPhpz]], which IC50 is on record?
Answer: Its IC50 is 25 ± 4 µM.

system: P. aeruginosa ATCC27853; assay: Broth microdilution MIC/MBC (ISO 20776-1); assay type: cell-based, Pseudomonas aeruginosa; conditions: P. aeruginosa ATCC27853, >99.99% reduction of growth
Method: as §2
(§4) The in vitro antibacterial activity was determined according to ISO 20776-1.[88] Among the tested microorganisms were Gram-negative rods, E. coli ATCC25922 and P. aeruginosa ATCC27853, and Gram-positive cocci, S. aureus ATCC29213 and E. faecalis ATCC29212. The selected bacterial species represented the most common etiologic agents of human infections and are used for quality control of antimicrobial susceptibility testing.[89] The test procedure included the determination of MICs and MBCs of complexes and their free ligands. MIC and MBC determinations of ciprofloxacin, as the reference antibiotic, were also performed. All compounds were dissolved in DMSO to reach the maximum 512 mg L^−1 concentration. […] The assay consisted of preparing 2-fold dilutions of the substances in a liquid growth medium MH II and inoculating them with a standardized suspension of microorganisms at a McFarland density of 0.5 (≈10^8 CFU mL^−1). The culture plates were incubated at 35 °C for 24 h. The lowest concentration of the compound inhibiting visible bacterial growth was specified as MIC, and the concentration that reduced bacterial growth by >99.99% after counting live bacteria on the plates compared to the positive control was defined as MBC.

Question: For Clc1ccc([O][Re])c2ncccc12.[C-]#[O+].[C-]#[O+].[C-]#[O+].c1ccc(-c2ccn[nH]2)cc1 [complex 12, [Re(CO)3(ClQ)HPhpz]], which MBC is on record?
Answer: Its MBC is >512/>512 mg L^−1.

same assay, conditions: P. aeruginosa ATCC27853, MH II broth, 35 °C, 24 h

Question: How did the MIC turn out when Clc1ccc([O][Re])c2ncccc12.[C-]#[O+].[C-]#[O+].[C-]#[O+].c1ccc(-c2ccn[nH]2)cc1 [complex 12, [Re(CO)3(ClQ)HPhpz]] was run?
Answer: The MIC was >512/>512 mg L^−1.

system: E. coli ATCC25922; assay: Broth microdilution MIC/MBC (ISO 20776-1); assay type: cell-based, Escherichia coli; conditions: E. coli ATCC25922, >99.99% reduction of growth
Method: as §2, §4

Question: With Clc1ccc([O][Re])c2ncccc12.[C-]#[O+].[C-]#[O+].[C-]#[O+].c1ccc(-c2ccn[nH]2)cc1 [complex 12, [Re(CO)3(ClQ)HPhpz]] as the compound, how does the MBC read?
Answer: Its MBC is >512/>512 mg L^−1.

same assay, conditions: E. coli ATCC25922, MH II broth, 35 °C, 24 h

Question: With Clc1ccc([O][Re])c2ncccc12.[C-]#[O+].[C-]#[O+].[C-]#[O+].c1ccc(-c2ccn[nH]2)cc1 [complex 12, [Re(CO)3(ClQ)HPhpz]] as the compound, how does the MIC read?
Answer: Its MIC is >512/>512 mg L^−1.

system: E. faecalis ATCC29212; assay: Broth microdilution MIC/MBC (ISO 20776-1); assay type: cell-based, Enterococcus faecalis; conditions: E. faecalis ATCC29212, >99.99% reduction of growth
Method: as §2, §4

Question: With Clc1ccc([O][Re])c2ncccc12.[C-]#[O+].[C-]#[O+].[C-]#[O+].c1ccc(-c2ccn[nH]2)cc1 [complex 12, [Re(CO)3(ClQ)HPhpz]] as the compound, how does the MBC read?
Answer: The MBC was greater than 512 µg/mL.

same assay, conditions: E. faecalis ATCC29212, MH II broth, 35 °C, 24 h

Question: Clc1ccc([O][Re])c2ncccc12.[C-]#[O+].[C-]#[O+].[C-]#[O+].c1ccc(-c2ccn[nH]2)cc1 [complex 12, [Re(CO)3(ClQ)HPhpz]] was tested. Which MIC did it give?
Answer: Its MIC is 16 µg/mL.

system: MCF-10A cells; assay: MTT cytotoxicity assay; conditions: read-out: IC50 ± SD; MCF-10A (non-cancerous), 24 h, MTT; * precipitation of the complex
Method: as §1, §2, §3

Question: How did the IC50 turn out when Clc1ccc([O][Re])c2ncccc12.[C-]#[O+].[C-]#[O+].[C-]#[O+].c1ccc(-c2ccn[nH]2)cc1 [complex 12, [Re(CO)3(ClQ)HPhpz]] was run?
Answer: Its IC50 is 34 ± 3 µM.

same assay, conditions: read-out: IC50 ± SD; MCF-10A (non-cancerous), 48 h, MTT; * precipitation of the complex

Question: How did the IC50 turn out when Clc1ccc([O][Re])c2ncccc12.[C-]#[O+].[C-]#[O+].[C-]#[O+].c1ccc(-c2ccn[nH]2)cc1 [complex 12, [Re(CO)3(ClQ)HPhpz]] was run?
Answer: Its IC50 is 14 ± 1 µM.

system: S. aureus ATCC29213; assay: Broth microdilution MIC/MBC (ISO 20776-1); assay type: cell-based, Staphylococcus aureus; conditions: S. aureus ATCC29213, >99.99% reduction of growth
Method: as §2, §4

Question: Clc1ccc([O][Re])c2ncccc12.[C-]#[O+].[C-]#[O+].[C-]#[O+].c1ccc(-c2ccn[nH]2)cc1 [complex 12, [Re(CO)3(ClQ)HPhpz]] was tested. Which MBC did it give?
Answer: Its MBC is greater than 512 µg/mL.

same assay, conditions: S. aureus ATCC29213, MH II broth, 35 °C, 24 h

Question: Clc1ccc([O][Re])c2ncccc12.[C-]#[O+].[C-]#[O+].[C-]#[O+].c1ccc(-c2ccn[nH]2)cc1 [complex 12, [Re(CO)3(ClQ)HPhpz]] was tested. Which MIC did it give?
Answer: Its MIC is 128 µg/mL.

From publication PMC11152041, “Tricarbonyl rhenium(I) complexes with 8-hydroxyquinolines: structural, chemical, antibacterial, and anticancer characteristics” (RSC Advances, 2024)
